Source: US5935977A, “Substituted vinyl pyridine derivative and drugs containing the same” (SS Pharmaceutical Co., Ltd., priority 1996, dated 1999)

What was measured:
PDE IV [1] = conditions: PDE IV vs other PDE isozymes; cited from earlier work
TNF-α = TNF-α Production Inhibition Test in LPS-treated U 937 cells; assay type: cell-based; conditions: U 937 cells differentiated with PMA; LPS 10 ng/ml, 6 hours; human TNF-α ELISA
Description: Human promonocytic leukemia cells (U 937 cells, 1×10^5 cells/400 μl) were inoculated on a 24-well culture plate. By use of an RPMI 1640 culture liquid (supplemented with 10% FCS) containing 50 nM PMA, the cells were incubated for 72 hours, to thereby induce differentiation into monocyte/macrophage (see Sarkiz Daniel-Issakani, Allem M. Spiegel and Berta Strulovici (1989), J. Biol. Chem. 264, p20240-20247). Subsequently, the culture supernatant was discarded, and an RPMI 1640 culture liquid (supplemented with 10% FCS) containing 10 ng/ml of LPS (lipopolysaccharide; E. coli, 0111:B4) was added. Each compound was added one hour before the LPS treatment, so as to achieve concentrations of 100 μM, 10 μM, 1 μM, and 0.1 μM. Six hours after addition of LPS, the quantity of produced TNF-α in the supernatant was measured by use of a human TNF-α ELISA kit (Amersham, code RPN 2758), For respective doses of each compound, % control was calculated, wherein the quantity of TNF-α produced when LPS treatment was performed and the compound was not added was considered 100%. Further, based on primary regression curves, there were calculated IC50 values in terms of TNF-α production inhibitory activity for respective compounds.

PDE III = test: PDE Inhibitory Activity Test, PDE III; assay type: biochemical; conditions: human platelet PDE III; substrate 1 μM; 20 min at 30° C.
PDE IV [2] = test: PDE Inhibitory Activity Test, PDE IV; assay type: biochemical; conditions: PDE IV from human histocytic lymphoma (U-937); substrate 1 μM; 20 min at 30° C.
PDE V = biological target: T1, PDE V (Homo sapiens, UniProt O76074); test: PDE Inhibitory Activity Test, PDE V; assay type: biochemical; conditions: human platelet PDE V; substrate 1 μM; 20 min at 30° C.
T1 construct: isolated from human tissue and purified in accordance with the method described in literature; from tissue; host or cells: human platelets
Description: A variety of PDE isozymes shown below were isolated from human tissue and purified in accordance with the method described in literature.
H. Hidaka, et al., Bioph. Bioch. Acta, (1976), 429, p485
C. D. Nicholson, et al., Trends Pharmacol. Sci., (1991), 12, p19.
The PDE activity was determined through use of a modified two-step assay method described by Hidaka et al. (Bioph. Bioch. Acta., (1976), 429, p485),
Briefly, [^3 H]cAMP and [^3 H]cGMP are hydrolyzed by their respective PDE isozymes to form [^3 H]5'-AMP and [^3 H]5'-GMP, respectively. Subsequently, [^3 H]5^1 -AMP and [^3 H]5^1 -GMP are transformed into [^3 H]adenosine and [^3 H]guanosine, respectively, due to the action of nucleotidases. Unreacted [^3 H]cAMP and [^3 H]cGMP are removed, causing them to bond to ion exchange resin, and the quantity of eluted [^3 H]adenosine or [^3 H]guanosine was counted in a liquid scintillation counter.
The diluted enzyme solution contains 50 mM Tris-HCl (pH 8.0), 5 mM MgCl2, and 50 μg of bovine serum albumin, wherein the concentrations represent final concentrations. The substrate concentration is 1 μM. The concentration of each test compound varies between 0.1 nM and 100 μM. Each test sample is incubated for 20 minutes at 30° C., and the PDE reaction is terminated by boiling for 2 minutes. The nucleotidase reaction was induced by adding snake venom nucleotidase to the above-described reaction mixture and incubating the resultant mixture for 20 minutes at 30° C.

[3] = in vivo; cited from earlier work
PDE = conditions: cited from earlier work

In the case of CCCCOc1cc(CC2CNC(=O)N2)ccc1OC (racemic) [Ro20-1724], the “potency at PDE IV relative to other PDE isozymes” value (PDE IV [1]) is listed as 100 times.
With COc1cnc(/C(C#N)=C/c2c(Cl)cncc2Cl)cc1O[C@@H]1C[C@H]2CC[C@@H]1C2 (relative stereo) [Example 21, (Z)-3-(3,5-Dichloro-4-pyridyl)-2-[5-methoxy-4-(exo-2-norbornyloxy)-2-pyridyl]propenenitrile] the IC50 (TNF-α) was 13.3 µM.
COc1cnc(/C(C#N)=C/c2c(Cl)cncc2Cl)cc1OC1CCCC1 [Example 1, (Z)-2-(4-cyclopentyloxy-5-methoxy-2-pyridyl)-3-(3,5-dichloro-4-pyridyl)propenenitrile] showed an IC50 (PDE III) of 10 µM, an IC50 (TNF-α) of 10.2 µM and an IC50 (PDE IV [2]) of 0.0026 µM. For the same compound, the IC50 (PDE V) was greater than 100 µM.
COc1cnc(/C(C#N)=C/c2ccncc2)cc1OC1CCCC1 [Example 4, (Z)-2-(4-Cyclopentyloxy-5-methoxy-2-pyridyl)-3-(4-pyridyl)propenenitrile] showed an IC50 (TNF-α) of 7.6 µM.
With COc1cnc(/C(C#N)=C/c2ccnc3ccccc23)cc1OC1CCCC1 [Example 10, (Z)-2-(4-Cyclopentyloxy-5-methoxy-2-pyridyl)-3-(4-quinolyl)propenenitrile] the IC50 (TNF-α) was 10 µM.
COc1cnc(/C(C#N)=C/c2c(OC)cncc2OC)cc1OC1CCCC1 [Example 11, (Z)-2-(4-Cyclopentyloxy-5-methoxy-2-pyridyl)-3-(3,5-dimethoxy-4-pyridyl)propenenitrile] showed an IC50 (TNF-α) of 5.5 µM.
COc1cnc(/C(C#N)=C/c2c(Cl)cncc2Cl)cc1OCCc1ccccc1 [Example 14, (Z)-3-(3,5-Dichloro-4-pyridyl)-2-(5-methoxy-4-phenethyloxy-2-pyridyl)propenenitrile] showed an IC50 (PDE III) greater than 100 µM, an IC50 (PDE IV [2]) of 0.0059 µM and an IC50 (PDE V) of 5.6 µM.
Compound COc1cnc(/C(C#N)=C/c2c(Cl)cncc2Cl)cc1OCCCc1ccccc1 [Example 15, (Z)-3-(3,5-Dichloro-4-pyridyl)-2-[5-methoxy-4-(3-phenylpropyloxy)-2-pyridyl]propenenitrile] has an IC50 (PDE III) of 91 µM, an IC50 (PDE IV [2]) of 0.0048 µM and an IC50 (PDE V) of 56 µM.
Work on CCCCOc1cc(/C(C#N)=C/c2c(Cl)cncc2Cl)ncc1OC [Example 16, (Z)-2-(4-Butyloxy-5-methoxy-2-pyridyl)-3-(3,5-dichloro-4-pyridyl)propenenitrile] yielded an IC50 (PDE III) of 15 µM, an IC50 (TNF-α) of 13.1 µM and an IC50 (PDE IV [2]) of 0.015 µM. The IC50 (PDE V) was 31 µM.
CCC(CC)Oc1cc(/C(C#N)=C/c2c(Cl)cncc2Cl)ncc1OC [Example 17, (Z)-3-(3,5-Dichloro-4-pyridyl)-2-[4-(1-ethylpropyloxy)-5-methoxy-2-pyridyl]propenenitrile] gave an IC50 (PDE III) greater than 100 µM, an IC50 (PDE IV [2]) of 0.036 µM and an IC50 (PDE V) greater than 100 µM.
In the case of CCOc1cnc(/C(C#N)=C/c2c(Cl)cncc2Cl)cc1OC1CCCC1 [Example 18, (Z)-2-(4-Cyclopentyloxy-5-ethoxy-2-pyridyl)-3-(3,5-dichloro-4-pyridyl)propenenitrile], the IC50 (PDE III) is reported as 18 µM, the IC50 (PDE IV [2]) is reported as 0.036 µM and the IC50 (PDE V) is reported as 12 µM.
Work on COc1cnc(/C(C#N)=C/c2c(Cl)cncc2Cl)cc1OC1Cc2ccccc2C1 [Example 19, (Z)-3-(3,5-Dichloro-4-pyridyl)-2-[4-(2-indanyloxy)-5-methoxy-2-pyridyl]propenenitrile] yielded an IC50 (PDE III) greater than 100 µM, an IC50 (TNF-α) of 2.9 µM and an IC50 (PDE IV [2]) of 0.00065 µM. For the same compound, the IC50 (PDE V) was greater than 100 µM.
With COc1cnc(/C(C#N)=C/c2c(Cl)cncc2Cl)cc1OC1CCOC1 (centres unmarked) [Example 20, (Z)-3-(3,5-Dichloro-4-pyridyl)-2-[5-methoxy-4-(tetrahydro-3-furanyloxy)-2-pyridyl]propenenitrile] the IC50 (PDE III) was 56 µM, the IC50 (TNF-α) was 7.1 µM and the IC50 (PDE IV [2]) was 0.011 µM. For the same compound, the IC50 (PDE V) was greater than 100 µM.
Compound COc1ccc(C2CNC(=O)C2)cc1OC1CCCC1 (centres unmarked) [Rolipram, reference compound] has an IC50 (PDE III) greater than 100 µM, an IC50 (TNF-α) of 100 µM and an IC50 (PDE IV [2]) of 5 µM.
In the case of Cn1c(=O)c2[nH]cnc2n(C)c1=O [theophylline], the “safety range” value [3] is listed as “rather narrow” and the “PDE inhibition selectivity” value (PDE) is listed as “inhibits PDE non-selectively”.
